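Interpolation was linear, between the two tested concentrations surrounding the appropriate level; five concentrations were tested over 48 hours in 96-well plates. GI50: concentration for 50% inhibition of growth.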 The source made the active and inactive calls. Cut-off read from the data, not from the text of the source: active = GI50 up to about 1.1 µM and inactive = higher.
Columns and labels:
Experiment in all cases: DTP human tumour cell line panel, 48 h
[1] = system: A549
[2] = system: HCT-116
[3] = system: HCT-15
[4] = system: HOP-62
[5] = system: IGROV-1
[6] = system: MDA-MB-435
[7] = system: MOLT-4
[8] = system: NCI-H23
[9] = system: NCI-H522
[10] = system: NCI/ADR-RES
[11] = system: OVCAR-3
[12] = system: OVCAR-8
[13] = system: RXF 393
[14] = system: SF-539
[15] = system: SK-MEL-28
[16] = system: SNB-19
[17] = system: TK-10
[18] = system: UO-31
[19] = system: MDA-N

COc1ccc2c(c1)CCN=C2c1ccccc1CCCCl
GI50 [1]: 24.2 µM (inactive) | GI50 [2]: 18.2 µM (inactive) | GI50 [3]: 23.6 µM | GI50 [4]: 28.6 µM (inactive) | GI50 [5]: 20.1 µM (inactive) | GI50 [6]: 38.7 µM (inactive) | GI50 [7]: 13 µM (inactive) | GI50 [8]: 4.85 µM (inactive) | GI50 [9]: 11.5 µM (inactive) | GI50 [10]: 26.4 µM (inactive) | GI50 [11]: 46.1 µM (inactive) | GI50 [12]: 16.8 µM (inactive) | GI50 [13]: 22.6 µM (inactive) | GI50 [14]: 18.6 µM (inactive) | GI50 [15]: > 100 µM (inactive) | GI50 [16]: 7.67 µM (inactive) | GI50 [17]: 94 µM (inactive) | GI50 [18]: 10 µM (inactive)

COc1ccc2c(=O)c3c([nH]c2c1)OCC3=O
GI50 [2]: > 100 µM (inactive) | GI50 [3]: > 100 µM | GI50 [4]: > 100 µM (inactive) | GI50 [5]: > 100 µM (inactive) | GI50 [6]: > 100 µM (inactive) | GI50 [7]: > 100 µM (inactive) | GI50 [8]: > 100 µM (inactive) | GI50 [10]: > 100 µM (inactive) | GI50 [12]: > 100 µM (inactive) | GI50 [13]: > 100 µM (inactive) | GI50 [14]: > 100 µM (inactive) | GI50 [15]: > 100 µM (inactive) | GI50 [16]: > 100 µM (inactive) | GI50 [17]: > 100 µM (inactive) | GI50 [18]: > 100 µM (inactive)

c1ccc([P+](CCNCCNCC[P+](c2ccccc2)(c2ccccc2)c2ccccc2)(c2ccccc2)c2ccccc2)cc1
GI50 [1]: > 100 µM (inactive) | GI50 [2]: > 100 µM (inactive) | GI50 [3]: > 100 µM | GI50 [4]: > 100 µM (inactive) | GI50 [5]: > 100 µM (inactive) | GI50 [6]: > 100 µM (inactive) | GI50 [19]: > 100 µM (inactive) | GI50 [7]: > 100 µM (inactive) | GI50 [8]: > 100 µM (inactive) | GI50 [10]: > 100 µM (inactive) | GI50 [11]: > 100 µM (inactive) | GI50 [12]: > 100 µM (inactive) | GI50 [13]: > 100 µM (inactive) | GI50 [14]: > 100 µM (inactive) | GI50 [15]: > 100 µM (inactive) | GI50 [16]: > 100 µM (inactive) | GI50 [17]: > 100 µM (inactive) | GI50 [18]: > 100 µM (inactive)

Cc1cc(/N=N/c2ccccc2C)ccc1N
GI50 [1]: 4.32 µM (inactive) | GI50 [2]: 15.5 µM (inactive) | GI50 [3]: 12.1 µM | GI50 [4]: 5.6 µM (inactive) | GI50 [5]: 14.6 µM (inactive) | GI50 [6]: 19.5 µM (inactive) | GI50 [19]: 18.5 µM (inactive) | GI50 [7]: 2.65 µM (inactive) | GI50 [8]: 3.99 µM (inactive) | GI50 [10]: 11.1 µM (inactive) | GI50 [11]: 7.35 µM (inactive) | GI50 [12]: 15.2 µM (inactive) | GI50 [13]: 6.82 µM (inactive) | GI50 [14]: 2.54 µM (inactive) | GI50 [15]: 21 µM (inactive) | GI50 [16]: 31 µM (inactive) | GI50 [17]: 19.6 µM (inactive) | GI50 [18]: 3.02 µM (inactive)

COc1cccc(N2C(=O)/C(=C\c3ccccc3)SC2c2cc(OC)c(OC)c(OC)c2)c1 (configuration not stated)
GI50 [1]: 64.1 µM (inactive) | GI50 [2]: 30.1 µM (inactive) | GI50 [3]: 44.3 µM | GI50 [4]: 37.6 µM (inactive) | GI50 [5]: 31.3 µM (inactive) | GI50 [6]: 22.6 µM (inactive) | GI50 [19]: 17.6 µM (inactive) | GI50 [7]: 27.5 µM (inactive) | GI50 [8]: 52.6 µM (inactive) | GI50 [9]: 22.2 µM (inactive) | GI50 [10]: 41.9 µM (inactive) | GI50 [12]: 44.1 µM (inactive) | GI50 [15]: 96.2 µM (inactive) | GI50 [16]: 77.6 µM (inactive) | GI50 [17]: > 100 µM (inactive) | GI50 [18]: 43.2 µM (inactive)

COc1c2c(cc3oc(=O)ccc13)OC(C)(C)C=C2 [XANTHOXYLETIN]
GI50 [1]: 31.7 µM (inactive) | GI50 [2]: 18.6 µM (inactive) | GI50 [3]: 23.6 µM | GI50 [4]: 34.9 µM (inactive) | GI50 [5]: 27.6 µM (inactive) | GI50 [6]: 27.2 µM (inactive) | GI50 [19]: 29.4 µM (inactive) | GI50 [7]: 23.8 µM (inactive) | GI50 [8]: 23.6 µM (inactive) | GI50 [9]: 21 µM (inactive) | GI50 [10]: 26 µM (inactive) | GI50 [11]: 37.9 µM (inactive) | GI50 [12]: 24.2 µM (inactive) | GI50 [14]: 36.6 µM (inactive) | GI50 [15]: 32.6 µM (inactive) | GI50 [16]: 35.6 µM (inactive) | GI50 [17]: 30.9 µM (inactive) | GI50 [18]: 25.8 µM (inactive)

CC[C@]12C=CCN3CCC4(c5cc(/N=N/c6ccc([N+](=O)[O-])cc6)c(OC)cc5N(C)[C@H]4[C@@](O)(C(=O)OC)[C@@H]1OC(C)=O)[C@@H]32 (some centres not stated)
GI50 [1]: 15.3 µM (inactive) | GI50 [2]: 10.7 µM (inactive) | GI50 [3]: 13.5 µM | GI50 [4]: 13.6 µM (inactive) | GI50 [5]: 11.9 µM (inactive) | GI50 [6]: 11.7 µM (inactive) | GI50 [19]: 12.9 µM (inactive) | GI50 [7]: 3.01 µM (inactive) | GI50 [8]: 10.5 µM (inactive) | GI50 [10]: 7.18 µM (inactive) | GI50 [11]: 4.53 µM (inactive) | GI50 [12]: 7.46 µM (inactive) | GI50 [13]: 12.5 µM (inactive) | GI50 [14]: 16.8 µM (inactive) | GI50 [15]: 11.8 µM (inactive) | GI50 [16]: 26.6 µM (inactive) | GI50 [17]: 17.2 µM (inactive) | GI50 [18]: 11.2 µM (inactive)

O=c1oc2ccccc2n1CCN1CCCCC1
GI50 [2]: > 100 µM (inactive) | GI50 [3]: > 100 µM | GI50 [4]: > 100 µM (inactive) | GI50 [5]: > 100 µM (inactive) | GI50 [6]: > 100 µM (inactive) | GI50 [19]: > 100 µM (inactive) | GI50 [7]: > 100 µM (inactive) | GI50 [8]: > 100 µM (inactive) | GI50 [10]: > 100 µM (inactive) | GI50 [11]: > 100 µM (inactive) | GI50 [12]: > 100 µM (inactive) | GI50 [13]: > 100 µM (inactive) | GI50 [14]: > 100 µM (inactive) | GI50 [15]: > 100 µM (inactive) | GI50 [16]: > 100 µM (inactive) | GI50 [17]: > 100 µM (inactive)
